Results reported in a melting point compilation (Tetko et al.; mined from patent text by program, amines drawn as free bases though some values may be those of a salt).

Structure (SMILES)	melting point [°C]
Nc1ccnc2cc(Br)cnc12	168 to 169
C=CCn1c(=O)c(C(=O)OCC)c(N)c2ccccc21	132 to 134
CCC[C@@H](CC1(C(=O)Nc2nnc(CC)s2)CCCC1)C(=O)O	130 to 136
COc1cc(Nc2c(C#N)cnc3cc(-c4ccc(CN5CCOCC5)nc4)ccc23)c(Cl)cc1Cl	195 to 197
Cc1ccccc1C(=O)Nc1ccc(C(=O)N2CCCC(=O)c3cc(Cl)ccc32)c(C)c1	134 to 142
CCc1nc2cc(C(N)=O)c(Cl)cc2n1-c1ccc(CCNC(=O)NS(=O)(=O)c2ccc(C)cc2)cc1	152 to 163
O=C(O)c1cnc(CO)s1	193
C#Cc1cc(C(=O)OC)ccc1S(C)(=O)=O	95 to 98
COC12CC(C)(c3nc(-c4cncc(Br)c4)no3)CN(C)C1Cc1c(Br)n(C)c3cccc2c13 (stereo not given)	167 to 172
Cc1ccc(S(=O)(=O)OCC2CCc3nc(C)sc3C2)cc1 (stereo not given)	70 to 71
COc1ccc(C2SCc3c(sc(N)c3C(=O)c3cccc4ccccc34)S2)cc1 (stereo not given)	132 to 134
CC(C)(Oc1ccc(CC(=O)Nc2ccc(C(F)(F)F)cc2)cc1)C(=O)O	197
CCN=C(NC#N)NCCSCc1ncccc1Br	123 to 124
CC(=O)N1CCc2ccc(Cl)c(S(=O)(=O)Cl)c2C1	121 to 125
CCCc1c(OCCCCCCc2ccccc2CCC(=O)O)ccc2c1OCCC2=O	98 to 99
O=C1NC(=S)SC1=Cc1cc(Cl)c2c(c1)N(CCc1ccc(C(F)(F)F)cc1)C(=O)CO2	275 to 277
COc1ccc(C(=O)Nc2ccc(Cl)cc2)cc1NC(=S)Nc1cc(Cl)cc(Cl)c1	180 to 185
CC(=O)Nc1ccccc1S(N)(=O)=O	154 to 156
Cc1nc2cccc(OCC(C)(C)C(=O)NCC3CCC3)c2c(N)c1C(=O)O	170 to 172
Cc1cc2c(NCc3ccc4c(c3)OCO4)nc(Cl)nc2s1	162

Structure (SMILES)	melting point [°C]
CS(=O)(=O)c1ccc(C[C@@H](NC(=O)OCc2ccccc2)[C@H](O)C(N)=O)cc1	186 to 191
CCCNC(=O)CCCCOc1ccc2c(c1)CCCN2C1CC(C)N(C(=O)c2cc(OC)c(OC)c(OC)c2)c2ccccc21 (stereo not given)	124 to 133
CCCCNc1ccn2ncc(Br)c2n1	94 to 95
CNC(=NC#N)Nc1ccc(Cl)nc1	227 to 228
COc1ccc(C(=O)C(=O)c2cccnc2)cc1	70 to 72
CCC12CCC(=O)C3Oc4c(O)ccc5c4C31CCN(CC1CC1)C2C5 (stereo not given)	157 to 158
CSc1ccc(CCCC(=O)O)cc1	53 to 55
CC#CCOc1cc(Oc2c(F)cc(F)cc2F)ncn1	60.3
CCN(Cc1cc(Cl)ccc1OCC1CC1)c1ccc(C(=O)O)nn1	119 to 120
CCCN(CCC)C1COc2cccc(C(=O)C(C)C)c2C1 (stereo not given)	60 to 62
CCOC(=O)c1c(CN2CCCCC2)nc2cc3c(cc2c1-c1ccc(OC)c(OC)c1)OCCO3	158 to 160
CCOC(=O)C1=C(C)NC(COC(C)=O)=C(C(=O)OCC)C1c1ccccc1Cl (stereo not given)	98
O=S(=O)(Nc1cccc(CCOCc2csc(-c3ccccc3)n2)c1)C(F)(F)F	112 to 113
Nc1ccc2nc(N3CCOCC3)nn2c1	165
c1ccc(NN2Cc3ccccc3C2)nc1	130 to 131
Cc1c(-c2ccccc2)sc2c(Cl)c(Cl)c(O)cc12	146 to 147
O=C(O)COc1cccc(C(=O)O)c1OCC(=O)O	195 to 197
O=C(CCCCc1cc(O)c(O)c([N+](=O)[O-])c1)NC12CC3CC(CC(C3)C1)C2	157 to 160
CC(C)N(C(=O)CN1C(=O)Cn2cnnc2-c2ccccc21)c1ccccc1	141 to 143
CC(C)C(C)CCC(C)C1CCC2C3CCC4CCCCC4(C)C3CCC12C (stereo not given)	136 to 137
